Consider 1 compound from ChEMBL document CHEMBL3526092 (Drug Metab Dispos, 2012).

Series [1] concerns the target T1, CYP3A (Homo sapiens, UniProt P08684+P20815+P24462+Q9HB55). Nature of the series: Inhibition of CYP3A-mediated 1'-OH midazolam formation in human liver microsomes after 7.5 mins by LC-MS method. The format is ADME. As to conditions: probe midazolam (1'-OH midazolam formation).
The target of series [2] is T1, CYP3A. Nature of the series: Inhibition of CYP3A-mediated 1'-OH midazolam formation in human liver microsomes preincubated for 15 mins before substrate addition by LC-MS method. The format is ADME. As to conditions: probe midazolam (1'-OH midazolam formation).
Series [3] has as its target T2, Cytochrome P450 3A4 (Homo sapiens, UniProt P08684). Nature of the series: Reversible competitive inhibition of human CYP3A4-mediated 1'-OH midazolam formation in human liver microsomes after 7.5 mins by nonlinear regression study. It counts as ADME.
Series [4] concerns the target T1, CYP3A. Nature of the series: Reversible competitive inhibition of CYP3A-mediated 1'-OH midazolam formation in human liver microsomes after 7.5 mins by nonlinear regression study. The following applies: probe midazolam (1'-OH midazolam formation). The format is ADME.
For series [5], the target named is T3, Cytochrome P450 3A5 (Homo sapiens, UniProt P20815). Briefly: Inhibition of human CYP3A5 expressed in supersomes assessed inhibition of 1'-OH midazolam formation by LC-MS method. The format is ADME.
T3 sequence (P20815 whole entry): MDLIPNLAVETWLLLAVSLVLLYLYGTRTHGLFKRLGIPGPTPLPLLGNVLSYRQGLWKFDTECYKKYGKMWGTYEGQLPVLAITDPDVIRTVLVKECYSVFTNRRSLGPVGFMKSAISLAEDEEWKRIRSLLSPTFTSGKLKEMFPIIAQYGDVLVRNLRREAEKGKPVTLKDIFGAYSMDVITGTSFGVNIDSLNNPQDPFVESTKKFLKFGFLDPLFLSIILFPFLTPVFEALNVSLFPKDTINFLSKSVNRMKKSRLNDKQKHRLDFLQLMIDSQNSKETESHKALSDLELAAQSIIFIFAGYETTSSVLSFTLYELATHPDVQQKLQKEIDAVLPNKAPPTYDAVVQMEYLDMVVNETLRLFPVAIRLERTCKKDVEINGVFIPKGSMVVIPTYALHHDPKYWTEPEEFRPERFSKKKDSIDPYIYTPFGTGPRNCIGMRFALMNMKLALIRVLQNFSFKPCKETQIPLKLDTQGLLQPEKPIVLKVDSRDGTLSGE
In series [6] the target is T3, Cytochrome P450 3A5. Nature of the series: Inhibition of human CYP3A5 expressed in supersomes assessed inhibition of 1'-OH midazolam formation preincubated with compound before substrate addition by LC-MS method. It counts as ADME.
In series [7] the target is T4, CYP3A5 (Homo sapiens, UniProt P20815). Nature of the series: Inhibition of human CYP3A5 expressed in supersomes assessed inhibition of 1'-OH midazolam formation preincubated with compound for 2.5 to 30 mins followed by addition of 20-fold diluted buffer with 20 uM MDZ by LC-MS method. It counts as ADME. As to conditions: supersomes expressing human CYP3A5, probe midazolam (20 uM; 1'-OH midazolam formation).
T4 sequence (P20815 whole entry): as above

Series [8] addresses T5, CYP3A4 (Homo sapiens, UniProt P08684). Nature of the series: Inhibition of human CYP3A4 expressed in supersomes assessed inhibition of 1'-OH midazolam formation preincubated with compound for 2.5 to 30 mins followed by addition of 20-fold diluted buffer with 20 uM MDZ by LC-MS method. It counts as ADME. The following applies: supersomes expressing human CYP3A4, probe midazolam (20 uM; 1'-OH midazolam formation).

The target in series [9] is T4, CYP3A5. Nature of the series: Inhibition of human CYP3A5 expressed in supersomes assessed inhibition of 1'-OH midazolam formation preincubated at 2 uM followed by addition of 20-fold diluted buffer with 20 uM MDZ by LC-MS method in presence of NADPH. The format is ADME. As to conditions: supersomes expressing human CYP3A5, probe midazolam (20 uM; 1'-OH midazolam formation).

In series [10] the target is T5, CYP3A4. Nature of the series: Inhibition of human CYP3A4 expressed in supersomes assessed inhibition of 1'-OH midazolam formation preincubated at 2 uM followed by addition of 20-fold diluted buffer with 20 uM MDZ by LC-MS method in presence of NADPH. The format is ADME. The following applies: supersomes expressing human CYP3A4, probe midazolam (20 uM; 1'-OH midazolam formation).

The target of series [11] is T2, Cytochrome P450 3A4. Briefly: Inhibition of human CYP3A4 expressed in supersomes assessed inhibition of 1'-OH midazolam formation by LC-MS method. The format is ADME.
Series [12] has as its target T2, Cytochrome P450 3A4. Briefly: Inhibition of human CYP3A4 expressed in supersomes assessed inhibition of 1'-OH midazolam formation preincubated with compound before substrate addition by LC-MS method. It counts as ADME.
Series [13] has as its target T3, Cytochrome P450 3A5. Briefly: Reversible competitive inhibition of human CYP3A5-mediated 1'-OH midazolam formation in human liver microsomes after 7.5 mins by nonlinear regression study. The format is ADME.
Series [14] deals with T5, CYP3A4. Nature of the series: Ratio of IC50 for human CYP3A4 expressed in supersomes by coincubation study to IC50 for human CYP3A4 expressed in supersomes by preincubation study. The following applies: supersomes expressing human CYP3A4, read-out: Ratio IC50.
Series [15] addresses T4, CYP3A5. Nature of the series: Ratio of IC50 for human CYP3A5 expressed in supersomes by coincubation study to IC50 for human CYP3A5 expressed in supersomes by preincubation study. The following applies: supersomes expressing human CYP3A5, read-out: Ratio IC50.
Series [16] concerns the target T1, CYP3A. Nature of the series: Competitive inhibition of CYP3A in human liver microsomes. It counts as ADME.
Setting [17] is: human, recombinant enzyme, TDE = time-dependent effect.

pIC50, pKi: −log10 of the molar value.

T5 sequence (P08684 whole entry): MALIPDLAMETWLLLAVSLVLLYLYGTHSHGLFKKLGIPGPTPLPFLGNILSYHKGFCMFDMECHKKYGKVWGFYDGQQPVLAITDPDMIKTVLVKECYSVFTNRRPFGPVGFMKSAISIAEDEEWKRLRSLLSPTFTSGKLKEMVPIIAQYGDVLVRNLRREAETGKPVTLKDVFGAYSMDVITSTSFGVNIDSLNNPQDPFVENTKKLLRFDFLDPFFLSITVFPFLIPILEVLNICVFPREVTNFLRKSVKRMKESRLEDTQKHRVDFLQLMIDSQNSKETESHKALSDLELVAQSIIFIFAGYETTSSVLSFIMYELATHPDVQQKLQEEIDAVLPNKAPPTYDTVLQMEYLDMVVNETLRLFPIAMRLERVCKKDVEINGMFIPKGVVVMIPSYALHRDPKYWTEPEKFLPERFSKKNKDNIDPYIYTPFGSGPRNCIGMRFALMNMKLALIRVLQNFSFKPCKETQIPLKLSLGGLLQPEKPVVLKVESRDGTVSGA
T2 sequence (P08684 whole entry): as above

Turning to `C=CC[C@@H]1/C=C(\C)C[C@H](C)C[C@H](OC)[C@H]2O[C@@](O)(C(=O)C(=O)N3CCCC[C@H]3C(=O)O[C@H](/C(C)=C/[C@@H]3CC[C@@H](O)[C@H](OC)C3)[C@H](C)[C@@H](O)CC1=O)[C@H](C)C[C@@H]2OC` [TACROLIMUS ANHYDROUS], at CYP3A [1], the IC50 at 7.5 min was determined as 940 nM. Moreover, the pIC50 at CYP3A [2] was 6.13; on Cytochrome P450 3A5 [5], 6.20; at Cytochrome P450 3A5 [6], 6.85; against Cytochrome P450 3A4 [11], 6.21; at Cytochrome P450 3A4 [12], 6.92. Further, the pKi on Cytochrome P450 3A4 [3] was 5.58; at Cytochrome P450 3A5 [13] it was 5.57; at CYP3A [16], 6.44. For the same compound, on CYP3A [4], the inhibitory constant (Ki) at 7.5 min is 610 nM. Moreover, the “inhibition (INH)” value on Cytochrome P450 3A5 [5] (setting [17]), at Cytochrome P450 3A5 [6] (setting [17]), at Cytochrome P450 3A4 [11] (setting [17]) and on Cytochrome P450 3A4 [12] (setting [17]) was “tde” in each case. For the same compound, the kinact at CYP3A5 [7] is 0.0035 s⁻¹; at CYP3A4 [8], 0.005 s⁻¹. Besides, the inhibition at 2 µM at CYP3A5 [9] is 52%; on CYP3A4 [10] it was 42%. The IC50 shift at CYP3A4 [14] and at CYP3A5 [15] was 5 each time.
